The values that follow come from patent publication US12171755B2, “PAPD5 inhibitors and methods of use thereof” (Children's Medical Center Corporation, priority 2017, dated 2024).

Molecules are shown by their SMILES.

The target in this experiment is T1, PAPD5 (Homo sapiens, UniProt Q8NDF8).
T1 construct: made in house
Description: High-throughput luminescence (KinaseGlo) RNA polyadenylation assay, ATP utilization by recombinant PAPD5. It is filed as biochemical. The conditions noted are these: Table 4 (entries of Table 5), ratio of luminescence with inhibitor to DMSO; for Fold-change determined at compound concentration 33 μM: 33 μM compound; for Fold-change determined at compound concentration 100 μM: 100 μM compound, higher = higher inhibition. Here is the method: Optimal conditions for an in vitro RNA polyadenylation assay using recombinant PAPD5, ATP and an oligonucleotide substrate were identified. The HTS assay involved ATP utilization by PAPD5, which reads out as a decreased luminescence signal produced by luciferase (KinaseGlo, Promega, Madison, WI).
100 nl of compound dissolved in DMSO was transferred to each well of the assay plate via pin transfer. For negative control wells, DMSO alone was added. Plates were gently vortexed for 5 seconds, then incubated for 2 hours at room temperature.
After 2 hours, 5 ul of luciferase (Promega KinaseGlo, Madison, WI) was added using a MultiDrop Combi (Thermo Fisher Scientific, Waltham, MA). The mixture was gently vortexed for 5 seconds and incubated for 10 minutes at room temperature. Plates were spun for 1 minute prior to luminescence measurements. Luminescent measurements were quantitated using a PerkinElmer EnVision™ plate reader.
˜100,000 compounds from various libraries at the ICCB-Longwood were screened in this manner in duplicate.
The fold change was the ratio of luminescence from a sample with inhibitor compared to that with DMSO. Thus, a higher number indicates higher inhibition.
A general note: Kinase-Glo measures the ATP left after a reaction by luminescence.

T1 sequence (Q8NDF8 68-698 isoform Q8NDF8-5): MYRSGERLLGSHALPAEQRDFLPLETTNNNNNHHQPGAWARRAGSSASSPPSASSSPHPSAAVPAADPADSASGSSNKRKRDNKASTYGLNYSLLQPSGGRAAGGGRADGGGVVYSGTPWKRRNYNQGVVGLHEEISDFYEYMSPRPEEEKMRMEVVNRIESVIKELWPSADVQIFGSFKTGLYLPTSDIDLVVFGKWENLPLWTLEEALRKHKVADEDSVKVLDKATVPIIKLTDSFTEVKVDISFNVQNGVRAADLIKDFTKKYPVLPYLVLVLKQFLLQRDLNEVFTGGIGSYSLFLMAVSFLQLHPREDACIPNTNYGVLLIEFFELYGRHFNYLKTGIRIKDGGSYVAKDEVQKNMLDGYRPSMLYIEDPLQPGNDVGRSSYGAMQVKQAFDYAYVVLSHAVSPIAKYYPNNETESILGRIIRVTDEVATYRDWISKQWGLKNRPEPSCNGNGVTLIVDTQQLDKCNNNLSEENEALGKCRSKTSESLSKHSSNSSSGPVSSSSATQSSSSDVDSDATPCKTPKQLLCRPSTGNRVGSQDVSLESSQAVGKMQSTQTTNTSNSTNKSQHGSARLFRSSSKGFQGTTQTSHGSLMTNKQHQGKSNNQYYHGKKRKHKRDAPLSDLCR

For the molecule `Cc1ccc(-c2nnc(Nc3ccc(OCC(N)=O)cc3)c3ccccc23)cc1S(=O)(=O)NCC1CCCO1` (stereo not shown) [Entry 56, 2-[4-[[4-[4-methyl-3-(oxolan-2-ylmethylsulfamoyl)phenyl]phthalazin-1-yl]amino]phenoxy]acetamide], the “Fold-change determined at compound concentration 33 μM” value worked out at 1.226 and the “Fold-change determined at compound concentration 100 μM” value was 1.487.
The like results for `Cc1ccc(CNC(=O)Nc2cn(CC(C)C)c(=O)c3ccccc23)cc1` [Entry 57, 1-[(4-methylphenyl)methyl]-3-[2-(2-methylpropyl)-1-oxoisoquinolin-4-yl]urea] were, in that order, 1.142 and 1.518.
In the case of `CC(C)Cn1cc(NC(=O)NCc2ccccc2)c2ccccc2c1=O` [Entry 57a, 1-benzyl-3-[2-(2-methylpropyl)-1-oxoisoquinolin-4-yl]urea], the “Fold-change determined at compound concentration 33 μM” value came out at 1.099 and the “Fold-change determined at compound concentration 100 μM” value was 1.574.
For the molecule `CC(C)Cn1cc(NC(=O)NCc2ccc(Cl)cc2)c2ccccc2c1=O` [Entry 58, 1-[(4-chlorophenyl)methyl]-3-[2-(2-methylpropyl)-1-oxoisoquinolin-4-yl]urea], the “Fold-change determined at compound concentration 33 μM” value is given as 1.076 and the “Fold-change determined at compound concentration 100 μM” value turned out to be 1.364.
As to `CCOc1ccccc1CNC(=O)Nc1cn(CC(C)C)c(=O)c2ccccc12` [Entry 59, 1-[(2-ethoxyphenyl)methyl]-3-[2-(2-methylpropyl)-1-oxoisoquinolin-4-yl]urea], the “Fold-change determined at compound concentration 33 μM” value is 1.113 and the “Fold-change determined at compound concentration 100 μM” value is 1.69.
Consider `COc1cccc(CNC(=O)Nc2cn(CC(C)C)c(=O)c3ccccc23)c1` [Entry 60, 1-[(3-methoxyphenyl)methyl]-3-[2-(2-methylpropyl)-1-oxoisoquinolin-4-yl]urea], for which the “Fold-change determined at compound concentration 33 μM” value is 1.088 and the “Fold-change determined at compound concentration 100 μM” value is 1.621.
Consider `COc1ccc(CNC(=O)Nc2cn(CC(C)C)c(=O)c3ccccc23)c(OC)c1` [Entry 60a, 1-[(2,4-dimethoxyphenyl)methyl]-3-[2-(2-methylpropyl)-1-oxoisoquinolin-4-yl]urea], for which the “Fold-change determined at compound concentration 33 μM” value was 1.164 and the “Fold-change determined at compound concentration 100 μM” value worked out at 1.507.
On to `CCc1cccc(NC(=O)Nc2cn(C)c(=O)c3ccccc23)c1` [Entry 61, 1-(3-ethylphenyl)-3-(2-methyl-1-oxoisoquinolin-4-yl)urea], for which the “Fold-change determined at compound concentration 33 μM” value worked out at 1.07 and the “Fold-change determined at compound concentration 100 μM” value is 1.235.
With `NC1CCN(c2nc3c(cc2F)c(=O)c(C(=O)O)cn3-c2ccc(F)cc2F)C1` (stereo not shown) [Entry 62, 7-(3-aminopyrrolidin-1-yl)-1-(2,4-difluorophenyl)-6-fluoro-4-oxo-1,4-dihydro-1,8-naphthyridine-3-carboxylic acid], the “Fold-change determined at compound concentration 33 μM” value came out at 1.298 and the “Fold-change determined at compound concentration 100 μM” value worked out at 1.41.
The matching figures for `COc1cccc(CNC2=Nc3ccccc3NC23CCCCC3)c1` [Entry 63, N-[(3-methoxyphenyl)methyl]spiro[4H-quinoxaline-3,1′-cyclohexane]-2-amine]: 1.113 and 1.417.
With `O=C(CCCn1c(=O)c2cccn2c2ccc(Br)cc21)N1CCCC1` [Entry 65, 7-bromo-5-(4-oxo-4-pyrrolidin-1-ylbutyl)pyrrolo[1,2-a]quinoxalin-4-one], the “Fold-change determined at compound concentration 33 μM” value is 1.23 and the “Fold-change determined at compound concentration 100 μM” value is given as 1.394.
Consider `CCCCN(CC)C(=O)CCCn1c(=O)c2cccn2c2ccccc21` [Entry 66, N-butyl-N-ethyl-4-(4-oxopyrrolo[1,2-a]quinoxalin-5-yl)butanamide], for which the “Fold-change determined at compound concentration 33 μM” value is reported as 1.083 and the “Fold-change determined at compound concentration 100 μM” value is given as 1.229.
On to `COc1ccc(NC(=O)CCn2c(=O)c3cccn3c3ccccc32)c(OC)c1` [Entry 67, N-(2,4-dimethoxyphenyl)-3-(4-oxopyrrolo[1,2-a]quinoxalin-5-yl)propanamide], for which the “Fold-change determined at compound concentration 33 μM” value came to 1.122 and the “Fold-change determined at compound concentration 100 μM” value is 1.238.
For the molecule `CCN(CC)CCNC(=O)c1ccc(Cn2c(=O)c3cccn3c3cccnc32)cc1` [Entry 69, N-(2-(diethylamino)ethyl)-4-((6-oxopyrido[2,3-e]pyrrolo[1,2-a]pyrazin-5(6H)-yl)methyl)benzamide], the “Fold-change determined at compound concentration 33 μM” value was 1.116 and the “Fold-change determined at compound concentration 100 μM” value was found to be 1.223.
With `CN(C)CCNC(=O)c1ccc(Cn2c(=O)c3cccn3c3cccnc32)cc1` [Entry 70, N-[2-(dimethylamino)ethyl]-4-[(6-oxopyrido[2,3-e]pyrrolo[1,2-a]pyrazin-5(6H)-yl)methyl]benzamide], the “Fold-change determined at compound concentration 33 μM” value stood at 1.103 and the “Fold-change determined at compound concentration 100 μM” value amounted to 1.206.
On to `CCCCn1c(=O)c2sccc2n2c(=S)[nH]nc12` [Entry 71, 4-butyl-1-thioxo-2,4-dihydrothieno[2,3-e][1,2,4]triazolo[4,3-a]pyrimidin-5(1H)-one], for which the “Fold-change determined at compound concentration 33 μM” value is given as 1.173 and the “Fold-change determined at compound concentration 100 μM” value stood at 1.531.
Turning to `CCCn1c(=O)c2cc(F)ccc2n2c(=S)[nH]nc12` [Entry 72, 7-fluoro-4-propyl-1-thioxo-2,4-dihydro[1,2,4]triazolo[4,3-a]quinazolin-5(1H)-one], the “Fold-change determined at compound concentration 33 μM” value worked out at 1.099 and the “Fold-change determined at compound concentration 100 μM” value is recorded as 1.256.
For `CC(C)Cn1c(=O)c2ccccc2n2c(=S)[nH]nc12` [Entry 73, 4-isobutyl-1-thioxo-2,4-dihydro[1,2,4]triazolo[4,3-a]quinazolin-5(1H)-one], the “Fold-change determined at compound concentration 33 μM” value worked out at 1.093 and the “Fold-change determined at compound concentration 100 μM” value was found to be 1.278.
Turning to `CC(C)CCn1c(=O)c2ccccc2n2c(=S)[nH]nc12` [Entry 74, 1-mercapto-4-(3-methylbutyl)[1,2,4]triazolo[4,3-a]quinazolin-5(4H)-one], the “Fold-change determined at compound concentration 33 μM” value is recorded as 1.372 and the “Fold-change determined at compound concentration 100 μM” value was determined as 1.87.
For `O=c1c2sccc2n2c(=S)[nH]nc2n1Cc1ccccc1` [Entry 75, 4-benzyl-1-thioxo-2,4-dihydrothieno[2,3-e][1,2,4]triazolo[4,3-a]pyrimidin-5(1H)-one], the “Fold-change determined at compound concentration 33 μM” value is on record as 1.11 and the “Fold-change determined at compound concentration 100 μM” value is recorded as 1.324.
Regarding `CCc1ccc(Cn2c(=O)c3sccc3n3c(=S)[nH]nc23)cc1` [Entry 76, 4-(4-ethylbenzyl)-1-thioxo-2,4-dihydrothieno[2,3-e][1,2,4]triazolo[4,3-a]pyrimidin-5(1H)-one], the “Fold-change determined at compound concentration 33 μM” value was determined as 1.7195 and the “Fold-change determined at compound concentration 100 μM” value is 1.423.
For the molecule `CCn1c(SCC(=O)O)nc2c(=O)n(C)c(=O)n(C)c21` [Entry 77, 2-(9-ethyl-1,3-dimethyl-2,6-dioxopurin-8-yl)sulfanylacetic acid], the “Fold-change determined at compound concentration 33 μM” value came to 1.142 and the “Fold-change determined at compound concentration 100 μM” value is 1.419.
As for `Cn1c(=O)c2nc(SCCC(=O)O)n(Cc3ccc(F)cc3)c2n(C)c1=O` [Entry 78, 3-{[9-(4-fluorobenzyl)-1,3-dimethyl-2,6-dioxo-2,3,6,9-tetrahydro-1H-purin-8-yl]sulfanyl}propanoic acid], the “Fold-change determined at compound concentration 33 μM” value came out at 1.05 and the “Fold-change determined at compound concentration 100 μM” value amounted to 1.26.
For the molecule `Cn1c(=O)c2nc(SCC(=O)O)n(CCc3ccccc3)c2n(C)c1=O` [Entry 79, 2-[1,3-dimethyl-2,6-dioxo-9-(2-phenylethyl)purin-8-yl]sulfanylacetic acid], the “Fold-change determined at compound concentration 33 μM” value stood at 1.164 and the “Fold-change determined at compound concentration 100 μM” value was 1.447.
For `Cn1c(=O)c2nc(SCC(=O)O)n(Cc3ccccc3)c2n(C)c1=O` [Entry 80, 2-(9-benzyl-1,3-dimethyl-2,6-dioxopurin-8-yl)sulfanylacetic acid], the “Fold-change determined at compound concentration 33 μM” value amounted to 1.164 and the “Fold-change determined at compound concentration 100 μM” value was determined as 1.55.
In the case of `Cn1c(=O)c2c(nc(Sc3nnc(NC(=O)c4ccccc4Br)s3)n2C)n(C)c1=O` [Entry 81], the “Fold-change determined at compound concentration 33 μM” value came out at 1.107 and the “Fold-change determined at compound concentration 100 μM” value was 1.288.
Consider `Cn1c(=O)c2nc(SCCC(=O)O)n(Cc3ccccc3)c2n(C)c1=O` [Entry 82, 3-(9-benzyl-1,3-dimethyl-2,6-dioxopurin-8-yl)sulfanylpropanoic acid], for which the “Fold-change determined at compound concentration 33 μM” value is 1.122 and the “Fold-change determined at compound concentration 100 μM” value is given as 1.306.
Consider `O=C(O)c1ccccc1C(=O)Nc1ccc(Br)c2cccnc12` [Entry 83, 2-[(5-bromoquinolin-8-yl)carbamoyl]benzoic acid], for which the “Fold-change determined at compound concentration 33 μM” value is 1.041 and the “Fold-change determined at compound concentration 100 μM” value came out at 1.203.
With `Cc1ccc(-c2onc3ccc(-c4cc(C(=O)O)c5ccccc5n4)cc23)cc1` [Entry 84, 2-[3-(4-methylphenyl)-2,1-benzoxazol-5-yl]quinoline-4-carboxylic acid], the “Fold-change determined at compound concentration 33 μM” value is listed as 1.12 and the “Fold-change determined at compound concentration 100 μM” value is recorded as 1.568.
